A short description of data set [1]: Antioxidant activity assessed as DPPH radical scavenging activity measured at 50 to 600 sec by spectrophotometric analysis. In kind it is functional. For orientation: The DPPH test is a chemical assay of radical scavenging.
Data set [2] concerns A549. In words: Cytotoxicity against human A549 cells assessed as reduction in cell viability measured after 24 hrs. In kind it is functional, cell-based. Particulars: A549, 24 h.
In data set [3] the test system is HepG2. In words: Cytotoxicity against human HepG2 cells assessed as reduction in cell viability measured after 24 hrs. In kind it is functional, cell-based. Particulars: HepG2, 24 h.
Data set [4] has as its system J774.A1. In words: Cytotoxicity against mouse J774.A1 cells assessed as reduction in cell viability measured after 24 hrs. The format is functional, cell-based. The following applies: J774.A1, 24 h.
Data set [5] deals with MCF7. In words: Cytotoxicity against human MCF7 cells assessed as reduction in cell viability measured after 24 hrs. The format is functional, cell-based. The following applies: MCF7, 24 h.
The nature of data set [6]: Cytotoxicity against human OVCAR cells assessed as reduction in cell viability measured after 24 hrs. The format is functional, cell-based.
Data set [7] concerns SiHa. In words: Cytotoxicity against human SiHa cells assessed as reduction in cell viability measured after 24 hrs. The format is functional, cell-based.
Data set [8] in a line: Cytotoxicity against mouse 3T3 cells assessed as reduction in cell viability measured after 24 hrs. The format is toxicity, cell-based. The following applies: NIH3T3 cells.
Data set [9] is described as follows: Selectivity index, ratio of IC50 for mouse 3T3 cells to IC50 for human A549 cells. Particulars: 3T3 cells and A549 cells, read-out: Ratio IC50. The format is toxicity.
Data set [10] is described as follows: Selectivity index, ratio of IC50 for mouse 3T3 cells to IC50 for human HepG2 cells. The following applies: 3T3 cells and HepG2 cells, read-out: Ratio IC50. In kind it is toxicity.
Data set [11] in a line: Selectivity index, ratio of IC50 for mouse 3T3 cells to IC50 for mouse J774.A1 cells.
Data set [12] is described as follows: Selectivity index, ratio of IC50 for mouse 3T3 cells to IC50 for human MCF7 cells. The format is toxicity. Particulars: 3T3 cells and MCF7 cells, read-out: Ratio IC50.
Data set [13] is described as follows: Selectivity index, ratio of IC50 for mouse 3T3 cells to IC50 for human OVCAR cells.
A short description of data set [14]: Selectivity index, ratio of IC50 for mouse 3T3 cells to IC50 for human SiHa cells. The following applies: 3T3 cells and SiHa cells, read-out: Ratio IC50. In kind it is toxicity.
In data set [15] the test system is NIH3T3. In words: Antioxidant activity in mouse 3T3 cells assessed as reduction in ROS level at 0.1 to 5 uM incubated for 24 hrs by DCFH-DA dye based fluorescence microplate reader analysis. The following applies: dose 0.1-5 µM. In kind it is functional, cell-based.
Data set [16] relates to NIH3T3. In words: Disruption of mitochondrial membrane potential in mouse 3T3 cells at 0.1 to 5 uM incubated for 24 hrs by […] inclusion assay. The format is toxicity, cell-based. Particulars: nih3t3, 24 h, dose 0.1-5 µM.
Data set [17] is described as follows: Genotoxicity in mouse 3T3 cells assessed as primary DNA damage at 0.1 to 5 microM incubated for 24 hrs by comet assay. In kind it is toxicity, cell-based. Particulars: nih3t3, 24 h, dose 0.1-5 µM.
A short description of data set [18]: Genotoxicity in mouse 3T3 cells assessed as cell death at 0.1 to 5 microM incubated for 24 hrs by LMW comet assay. In kind it is toxicity, cell-based. Particulars: nih3t3, 24 h, dose 0.1-5 µM.
For data set [19], the system named is NIH3T3. In words: Induction of apoptosis in mouse 3T3 cells assessed as increase in early apoptotic cells at 0.1 to 1 microM incubated for 24 hrs by Annexin V/PI staining based fluorescence microscopic analysis. The format is toxicity, cell-based. Particulars: nih3t3, 24 h, dose 0.1-1 µM.
The test system of data set [20] is NIH3T3. In words: Induction of apoptosis in mouse 3T3 cells assessed as increase in necrotic cells at 0.1 to 1 microM incubated for 24 hrs by Annexin V/PI staining based fluorescence microscopic analysis. The format is toxicity, cell-based. Particulars: nih3t3, 24 h, dose 0.1-1 µM.
The subject of data set [21] is MCF7. In words: Potency index, ratio of hymecromone IC50 to test compound IC50 for cytotoxicity against human MCF7 cells assessed as reduction in cell viability measured after 24 hrs. In kind it is functional.
The test system of data set [22] is RAW264.7. In words: Cytotoxicity against mouse RAW264.7 cells assessed as reduction in cell viability measured after 24 hrs. The format is functional, cell-based. The following applies: RAW264.7, 24 h.
Data set [23] can be described thus: Selectivity index, ratio of IC50 for mouse 3T3 cells to IC50 for mouse RAW264.7 cells.
Data set [24] has as its system NIH3T3. In words: Cytotoxicity against mouse 3T3 cells assessed as reduction in cell viability at 40 uM measured after 24 hrs relative to control. The format is toxicity, cell-based. The following applies: nih3t3, 24 h.
The subject of data set [25] is NIH3T3. In words: Induction of apoptosis in mouse 3T3 cells assessed as increase in late apoptotic cells at 1 microM incubated for 24 hrs by Annexin V/PI staining based fluorescence microscopic analysis. In kind it is toxicity, cell-based. Particulars: nih3t3, 24 h.

The source made the active and inactive calls. No cut-off for these calls is given here.

Usually IC50 stands for the midpoint of a concentration-inhibition curve.

Regarding `Cc1cc(=O)oc2c(O)c(O)cc(C(=O)O)c12`, the IC50 in data set [1] worked out at 17.5 µM.

As to `Cc1cc(=O)oc2cc(O)ccc12` [HYMECROMONE], the IC50 in data set [2] was greater than 100 µM; in data set [3], greater than 100 µM; in [4], greater than 100 µM; in data set [5], 54.8 µM; in [6], greater than 100 µM; in data set [7] it was greater than 100 µM. The 50% inhibitory concentration (IC50) at 24 h in data set [8] amounted to 24 µM. Besides, the selectivity ratio in [9] was 0.155; in [10], 0.161; in data set [12] it was 0.438; in data set [14] it was 0.011. The Ratio IC50 was determined as 0.171 in data set [11] and 0.021 in data set [13]. For the same compound, in [15], the result was Active. Also, the Activity result in [16] was “Non-Toxic”; in [17] it was “Non-Toxic”; in [18], “Non-Toxic”; in data set [19], “Toxic”; in [20] it was “Non-Toxic”.

With `Cc1cc(=O)oc2cc(OCCn3cc(CCN4C(=O)c5ccccc5C4=O)nn3)ccc12`, the concentration for half-maximal inhibition (IC50) in [2] is 80.8 µM; in [3] it was 87.6 µM; in [4] it was 39.5 µM; in [5] it was 2.66 µM; in data set [6], 91.3 µM; in [7] it was greater than 100 µM. Further, the IC50 at 24 h in data set [8] worked out at 0.62 µM. In addition, the selectivity ratio is 0.007 in data set [9], 0.007 in [10], 0.233 in data set [12] and less than 0.001 in [14]. Moreover, in data set [21], the “Ratio IC50” value came out at 5. For the same compound, the outcome in [15] was inactive. Also, the Activity entry in data set [16] is given as “Toxic”; in data set [17], “Non-Toxic”; in data set [18] it was “Non-Toxic”; in data set [19], “Toxic”; in data set [20], “Non-Toxic”.

Regarding `Cc1cc(=O)oc2c(O)c(O)ccc12` [4-METHYLDAPHNETIN], the IC50 in data set [1] worked out at 33.5 µM.

On to `Cc1cc(=O)oc2cc(OCCn3cc(COc4cccc5c(C)cc(=O)oc45)nn3)ccc12`, for which the IC50 in data set [2] was greater than 100 µM; in [3] it was 88.3 µM; in [4], greater than 100 µM; in data set [5] it was 5.04 µM; in data set [6], greater than 100 µM; in [22], 8.37 µM. Also, in [7], the IC50 is greater than 100 µM. The IC50 at 24 h in [8] is greater than 40 µM. In addition, the selectivity ratio in data set [9] was 0.175; in data set [10], 0.221; in [12] it was greater than 7.93; in data set [14] it was 0.001. Besides, the Ratio IC50 in data set [11] was 0.001; in data set [13], 0.012; in data set [23], 2.33; in [21], 5. The Activity entry is given as “Non-Toxic” in data set [24]; “Toxic” in data set [16]; “Non-Toxic” in [17]; “Non-Toxic” in [18]; “Toxic” in [19]; “Non-Toxic” in [20]. Also, the result in data set [15] was Active.

On to `O=c1ccc2cc(O)c(O)cc2o1` [ESCULETIN], for which the IC50 in data set [1] came out at 25.2 µM.

As for `Cc1cc(=O)oc2cc(OCCn3cc(-c4ccccc4)nn3)ccc12`, the IC50 in data set [2] was greater than 100 µM; in [3], greater than 100 µM; in data set [4], 33 µM; in data set [5] it was 2.85 µM; in [6], greater than 100 µM; in [7], greater than 100 µM. Moreover, the half-maximal inhibitory concentration (IC50) at 24 h in [8] is 2.41 µM. Also, the selectivity ratio was 0.007 in [9], 0.014 in [10], 0.845 in [12] and less than 0.001 in data set [14]. Also, the results for the Ratio IC50 in [11], in data set [13] and in [21] were 0.072, 0.004 and 5, respectively. In addition, in [15], the result was inactive. Besides, the Activity entry in [16] is on record as “Toxic”; in data set [17], “Non-Toxic”; in [18] it was “Non-Toxic”; in data set [19] it was “Toxic”; in data set [20], “Non-Toxic”; in data set [25] it was “Toxic”.

Take `Cc1cc(=O)oc2cc(OCCn3cc(CO)nn3)ccc12`: the IC50 in data set [2] is greater than 100 µM; in [3], greater than 100 µM; in data set [4] it was greater than 100 µM; in data set [5] it was 10.1 µM; in data set [6], greater than 100 µM; in [22], 5.08 µM. In data set [7], the IC50 was greater than 100 µM. Besides, the IC50 at 24 h in data set [8] was determined as 5.21 µM. The selectivity ratio came out at 0.017 in [9], 0.031 in [10], 0.516 in [12] and 0.002 in [14]. Further, the Ratio IC50 was 0.037 in [11], less than 0.001 in data set [13], 0.025 in data set [23] and 5 in data set [21]. Further, the result in [15] was Active. Further, the Activity result is listed as “Non-Toxic” in [16]; “Non-Toxic” in data set [17]; “Non-Toxic” in data set [18]; “Toxic” in data set [19]; “Non-Toxic” in [20].

Source of the values: ChEMBL document CHEMBL5257152, “Antiproliferative activity and toxicity evaluation of 1,2,3-triazole and 4-methyl coumarin hybrids in the MCF7 breast cancer cell line” (RSC Med Chem, 2023).
